Measurements reported in patent US20210298332A1, “AGENT FOR SUPPRESSING HEAT-RESISTANT ACIDOPHILIC BACTERIA, METHOD FOR PREVENTING CONTAMINATION WITH HEAT-RESISTANT ACIDOPHILIC BACTERIA, AND BEVERAGE” (SUNTORY HOLDINGS LIMITED, priority 2018, published 2021).
≈ marks a conversion by molar mass, not a printed value.

Tested on: Thermo-Acidophilic Bacilli (Alicyclobacillus acidoterrestris ATCC 49025)
Test: Evaluation of antibacterial action (agar plate dilution MIC)
Assay type: cell-based
Method: Thermo-Acidophilic Bacilli (Alicyclobacillus acidoterrestris ATCC 49025) were pre-incubated as test bacteria (conditions: YSG broth, 50±1° C., two days, aerobic conditions), so that a test bacterial solution was obtained. A 10 mg/mL xanthohumol solution and serial two-fold dilutions thereof were prepared using 99.5% ethanol. Each of the solution and dilutions was added to a medium (YSG agar medium) whose temperature is maintained at 50±1° C. after being sterilized and dissolved at a ratio of 1/99 (volume of xanthohumol solution/volume of medium solution) and mixed sufficiently. The resulting mixtures were each dispensed into a petri dish and solidified, whereby agar plate media were produced. Each of the agar plate media was smeared with the pre-incubated test bacterial solution, followed by incubation at 50±1° C. for five days under aerobic conditions. The lowest concentration where the growth of the bacteria was prevented was taken as the minimum inhibitory concentration (MIC).

COc1cc(O)c(CC=C(C)C)c(O)c1C(=O)/C=C/c1ccc(O)cc1 [Xanthohumol]
growth of Thermo-Acidophilic Bacilli: inhibit the growth | MIC (ATCC49025, 120 h, YSG agar medium, 50±1° C., five days, aerobic conditions): 3.13 mg/L (≈ 8.83 µM)
